Measured values: patent publication US4421685A, “Process for producing an insulin” (Eli Lilly and Company, priority 1981, dated 1983)

How the values were obtained:
insulin receptor = insulin receptor (Homo sapiens, UniProt P06213); assay: insulin radioreceptor assay; assay type: binding
Excerpt: (§1) Moreover, the product can be assayed for purity and activity by recognized methods such as polyacrylamide gel electrophoresis, amino acid analysis, insulin radioreceptorassay, insulin radioimmunoassay, high performance liquid chromatography (HPLC), ultraviolet spectrum, dansylation, rabbit blood glucose assay, and the like.
After acidification to pH 3.15 with glacial acetic acid, a portion of this solution was gel filtered on a 1.5×90 cm. column of Sephadex G-50 (Superfine) equilibrated and eluted with 1 M acetic acid at 4°-8° C. The [N-formyl-Gly^1 A] human insulin peak (elution volume 87-95 ml.) was pooled, aliquotted and lyophilized. This protein was judged to be quite clean by HPLC and amino acid analysis. The bioactivity of [N-formyl-Gly^1 -A] human insulin evaluated by radioreceptor assay was 17% relative to a human insulin standard.

rabbit blood glucose = assay: USP rabbit assay (rabbit blood glucose assay); assay type: in vivo; conditions: 144 rabbits; zinc insulin crystals redissolved in 0.01 N HCl
Excerpt: as §1
The resulting human insulin preparation was judged to be quite pure by polyacrylamide gel electrophoresis (a single band), amino acid analysis, insulin radioreceptorassay, insulin radioimmunoassay, HPLC, dansylation and UV spectrum. […] (anhydrous).

Sequence of insulin receptor (P06213 28-758 limits assumed): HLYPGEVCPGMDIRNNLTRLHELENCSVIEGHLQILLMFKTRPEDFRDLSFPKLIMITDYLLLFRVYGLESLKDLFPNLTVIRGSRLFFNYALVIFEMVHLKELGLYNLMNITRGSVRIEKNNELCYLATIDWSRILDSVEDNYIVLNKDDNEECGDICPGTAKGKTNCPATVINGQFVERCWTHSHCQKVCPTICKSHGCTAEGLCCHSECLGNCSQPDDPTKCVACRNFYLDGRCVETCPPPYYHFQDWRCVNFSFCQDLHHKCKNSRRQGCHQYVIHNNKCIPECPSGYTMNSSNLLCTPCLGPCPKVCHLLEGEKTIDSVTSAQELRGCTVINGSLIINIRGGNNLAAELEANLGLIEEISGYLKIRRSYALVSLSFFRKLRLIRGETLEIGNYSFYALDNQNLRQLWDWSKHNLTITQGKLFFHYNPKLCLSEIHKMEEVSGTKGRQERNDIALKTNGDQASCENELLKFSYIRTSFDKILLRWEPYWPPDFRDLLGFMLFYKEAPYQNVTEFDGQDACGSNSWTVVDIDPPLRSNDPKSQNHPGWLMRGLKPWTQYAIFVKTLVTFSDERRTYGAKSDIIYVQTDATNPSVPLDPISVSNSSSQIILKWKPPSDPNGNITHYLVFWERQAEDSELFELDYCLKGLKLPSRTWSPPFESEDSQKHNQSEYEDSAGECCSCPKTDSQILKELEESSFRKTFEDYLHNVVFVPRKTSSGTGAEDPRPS
Sequence of insulin receptor (P06213 763-1382 partner limits assumed): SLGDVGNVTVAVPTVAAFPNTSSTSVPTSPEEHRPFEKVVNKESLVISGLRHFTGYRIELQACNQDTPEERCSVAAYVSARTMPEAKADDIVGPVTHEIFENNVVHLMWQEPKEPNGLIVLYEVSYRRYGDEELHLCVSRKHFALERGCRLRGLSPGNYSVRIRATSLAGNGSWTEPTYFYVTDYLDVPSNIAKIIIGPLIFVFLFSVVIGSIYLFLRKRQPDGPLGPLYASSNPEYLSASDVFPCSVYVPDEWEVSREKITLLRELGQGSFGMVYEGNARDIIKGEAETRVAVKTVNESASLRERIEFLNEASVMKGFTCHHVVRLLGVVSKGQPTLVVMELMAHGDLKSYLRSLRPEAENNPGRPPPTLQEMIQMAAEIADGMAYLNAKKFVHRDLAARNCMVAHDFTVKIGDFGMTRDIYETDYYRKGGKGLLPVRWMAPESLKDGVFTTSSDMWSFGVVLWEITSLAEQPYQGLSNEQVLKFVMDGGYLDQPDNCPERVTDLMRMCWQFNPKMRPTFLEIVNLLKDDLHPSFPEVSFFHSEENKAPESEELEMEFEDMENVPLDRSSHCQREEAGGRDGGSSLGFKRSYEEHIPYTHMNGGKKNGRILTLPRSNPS

Substance | bioactivity evaluated by radioreceptor assay relative to a human insulin standard (insulin receptor) | potency, USP rabbit assay (rabbit blood glucose)
[N-formyl-Gly^1 -A] human insulin | 17% | 
human insulin |  | 26.3±1.8 units per mg. (anhydrous)
